According to EP0677522A1, “8-METHOXYQUINOLONECARBOXYLIC ACID DERIVATIVE” (priority 1992, dated 1994):
In brackets after ≈: the same amount, converted by molar mass.

What was measured:
M.catarrhalis ATCC 25238 = test: In vitro antibacterial activity (MIC), Japan Society of Chemotherapy Standard; type: cell-based; details: Moraxella catarrhalis, ATCC25238; inoculated cells 10⁶ cells/ml; medium supplemented with 10% horse blood
Summary of the method: (§1)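 MIC (µg/ml) was measured by the Japan Society of Chemotherapy Standard method with an inoculum of 10⁶ cells/ml. Strains marked as fastidious were grown in medium supplemented with 10% horse blood.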

[1] = tested on: Enterobacter cloacae IFO 12937; test: as above; type: cell-based; details: IFO12937, inoculated cells 10⁶ cells/ml
Summary of the method: as §1

S. pneumoniae Type-III = test: as above; type: cell-based; details: Streptococcus pneumoniae; inoculated cells 10⁶ cells/ml; medium supplemented with 10% horse blood
Summary of the method: as §1

[2] = tested on: Acinetobacter calcoaceticus ATCC 13006; test: as above; type: cell-based; details: ATCC13006, inoculated cells 10⁶ cells/ml
Summary of the method: as §1

[3] = tested on: Streptococcus pyogenes C-203; test: as above; type: cell-based; details: C203, inoculated cells 10⁶ cells/ml, medium supplemented with 10% horse blood
Summary of the method: as §1

S. aureus MRSA Y-238 = test: Protection of mice from experimental infection; type: in vivo; details: oral administration one hour after inoculation, survival ratio at 7 days
Method: (§2) Experimental infection was caused by intraperitoneal inoculation of respective bacteria to male mice. One hour after the inoculation, a test compound was orally administered to the mice. The therapeutic effect of each test compound was evaluated by reference to the 50% effective dose (ED₅₀) which was based on the survival ratio at 7 days after the administration according to the probit method [Proc. Soc. Exp. Med., Vol. 57, p 261-264 (1944)]. The minimum inhibitory concentration (MIC) of the infectious bacteria used was also determined. […]

E. coli KC-14 = test: Protection of mice from experimental infection; type: in vivo; details: oral administration one hour after inoculation, survival ratio at 7 days
Method: as §2

S. aureus Smith = test: Protection of mice from experimental infection; type: in vivo; details: male mice; intraperitoneal inoculation 2.8×10⁶ cells/mouse (123×LD₅₀); oral administration one hour after inoculation; survival ratio at 7 days, probit method
Method: as §2

With `CC1COc2c(N3CCN(C)CC3)c(F)cc3c(=O)c(C(=O)O)cn1c23` (stereo not shown) [Comp. Ex. 2, 9-fluoro-2,3-dihydro-3-methyl-10-(4-methyl-1-piperazinyl)-7-oxo-7H-pyrido [1. 2. 3-de) [1.4] benzoxazine-6-carboxylic acid, reference compound] as the compound, how does the MIC (M.catarrhalis ATCC 25238) read?
Its MIC is 0.1 mg/L (≈ 0.277 µM).

And the MIC [1]?
Its MIC is 0.39 mg/L (≈ 1.08 µM).

And the MIC (S. pneumoniae Type-III)?
The MIC was 0.78 mg/L (≈ 2.16 µM).

What about the MIC [2] of the same compound?
The MIC was 0.2 mg/L (≈ 0.553 µM).

What about the MIC [3] of the same compound?
Its MIC is 1.56 mg/L (≈ 4.32 µM).

And the “ED₅₀ (mg/mouse) (95% confidence limit)” value (S. aureus MRSA Y-238; Table 3-1: male mice, intraperitoneal inoculation 7.5×10⁶ cells/mouse (185×LD₅₀))?
Its value is > 16 mg/mouse.

And the “ED₅₀ (mg/mouse) (95% confidence limit)” value (S. aureus MRSA Y-238; Table 3-2: male mice, intraperitoneal inoculation 7.5×10⁵ cells/mouse (185×LD₅₀))?
Its value is > 16 mg/mouse.

What about the “ED₅₀ (mg/mouse) (95% confidence limit)” value (E. coli KC-14; Table 3-1: male mice, intraperitoneal inoculation 5.0×10⁶ cells/mouse (744×LD₅₀)) of the same compound?
The value was 0.012(0.009-0.018) mg/mouse.

What about the “ED₅₀ (mg/mouse) (95% confidence limit)” value (E. coli KC-14; Table 3-2: male mice, intraperitoneal inoculation (744×LD₅₀)) of the same compound?
The value was 0.012(0.009-0.018) mg/mouse.

And the “ED₅₀ (mg/mouse) (95% confidence limit)” value (S. aureus Smith)?
Its value is 0.208(0.137-0.344) mg/mouse.
